SMILES strings stand for the structures. Where a name gives a salt, the structure may show the parent alone. Read-outs that look alike come from different tables or passages of the source. Where only a bound is given, the exact number is not on record here.

For series [1] the following is noted: volume of water per 1 g of (+)-catechin; cited from earlier work.
The nature of series [2]: solubility of double salts in the presence of 2% of benzyl alcohol. The format is physicochemical. To be noted: salts formed with L-lysine and an acid. As to the method: These double salts of (+)-catechin are all hydrosoluble but the solubility varies somewhat as a function of the acid used.
Upon cooling, salts precipitate and 1 to 3% of benzyl alcohol are added, advantageously 2%. The solution is reheated to about 45° C. and allowed to cool again, preferably to below 10° C. The double salt then remains in solution.

Series [3] in a line: pH of solutions of the salts. The format is physicochemical.

Take `Oc1cc(O)c2c(c1)O[C@H](c1ccc(O)c(O)c1)[C@@H](O)C2` [(+)-catechin, trans-2-(3,4-dihydroxyphenyl)-3,4-dihydro-2H-1-benzopyran-3,5,7-triol]: the “solubility of (+)-catechin in water” value in series [1] is 1100-1200 ml of water. Consider `Oc1cc(O)c2c(c1)O[C@H](c1ccc(O)c(O)c1)[C@@H](O)C2` [Example 2], for which the solubility result in series [2] (listed as salt formed with L-lysine and hydrochloric acid) is listed as “above 15 mg of (+)-catechin per ml”. For the compound `Oc1cc(O)c2c(c1)O[C@H](c1ccc(O)c(O)c1)[C@@H](O)C2` [Example 6], the “pH of an aqueous concentrated solution” value in series [3] is on record as 6.5. For the same compound, in series [2] (water, 2% benzyl alcohol, organic solvent or mixture, read-out: solubility), the solubility is over 15 mg/mL. For `Oc1cc(O)c2c(c1)O[C@H](c1ccc(O)c(O)c1)[C@@H](O)C2` [salt formed with L-lysine and acetic acid], the solubility entry in series [2] is “above 15 mg of (+)-catechin per ml”. For `Oc1cc(O)c2c(c1)O[C@H](c1ccc(O)c(O)c1)[C@@H](O)C2` [salt formed with L-lysine and citric acid], the solubility in series [2] is recorded as 9.5 mg of (+)-catechin per ml. In the case of `Oc1cc(O)c2c(c1)O[C@H](c1ccc(O)c(O)c1)[C@@H](O)C2` [salt formed with L-lysine and glucuronic acid], in series [2], the solubility entry is “above 15 mg of (+)-catechin per ml”.

Values taken from patent US4285964A, “Salts of (+)-catechine, their preparation and use, and compositions containing these salts” (Continental Pharma, priority 1979, dated 1981).
